From patent US20250313572A1, “MACROCYCLIC MCL-1 INHIBITORS AND METHODS OF USE” (AbbVie Inc., priority 2017, published 2025)
Like-named read-outs stand apart in the source and are kept apart here.

Key:
[1] = biological target: GST-MCL-1 (Homo sapiens, UniProt Q07820); experiment: TR-FRET MCL-1 binding assay (competition with probe F-Bak)
Method in brief: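 Test compounds, 11 three-fold dilutions from 25 μM final, incubated 2 hours at room temperature with GST-MCL-1, F-Bak probe and Tb-anti-GST antibody. TR-FRET read at 340/35 nm excitation with 520/525 and 495/510 nm emission. Run without human serum and with 10% HS.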

[2] = system: AMO-1 human multiple myeloma tumor cell line; experiment: AMO-1 cell viability assay (CellTiter-Glo, 24 hours); format: cell-based; details: Homo sapiens, AMO1, 24 h, read-out: AMO-1 Viability IC50 (μM, 10% FBS), 10% FBS, 24 hours of compound treatment
Procedure: Each concentration was tested in duplicate at least 3 independent times. A luminescent signal proportional to the number of viable cells following 24 hours of compound treatment was determined using the CellTiter-Glo® Luminescent Cell Viability Assay according to the manufacturer's recommendations (Promega Corp., Madison, WI). The plates were read in a Perkin Elmer Envision using a Luminescence protocol. To generate dose response curves the data is normalized to percent viability by setting the averages of the staurosporine (10 μM) and DMSO only control wells to 0% and 100% viability respectively.

[3] = system: NCI-H929 human multiple myeloma tumor cell line; experiment: NCI-H929 cell viability assay (CellTiter-Glo, 24 hours); format: cell-based; details: Homo sapiens, NCI-H929, 24 h, read-out: H929 Viability IC50 (μM, 10% FBS), 10% FBS, 24 hours of compound treatment
[4] = MCL-1 Binding Ki (nM, 10% HS), in the presence of 10% HS (human serum)
[5] = without HS, read-out: MCL-1 Binding Ki

Sequence of GST-MCL-1 (Q07820 whole entry): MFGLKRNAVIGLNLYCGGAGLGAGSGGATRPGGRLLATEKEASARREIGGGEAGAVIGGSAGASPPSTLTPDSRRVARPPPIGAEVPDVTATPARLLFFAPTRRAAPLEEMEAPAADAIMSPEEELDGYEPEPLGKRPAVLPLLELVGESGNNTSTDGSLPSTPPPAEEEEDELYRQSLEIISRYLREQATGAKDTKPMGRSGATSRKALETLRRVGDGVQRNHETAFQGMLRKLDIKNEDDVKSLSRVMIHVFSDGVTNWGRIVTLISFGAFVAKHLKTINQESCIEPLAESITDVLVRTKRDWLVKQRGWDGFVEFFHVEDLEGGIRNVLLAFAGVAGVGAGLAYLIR

For `COCCOCCOCCOCCOCCOC[C@]1(F)CC[C@@H](c2nccc(COc3ccc4cc3C[C@H](C(=O)O)Oc3ncnc5sc(-c6ccc(F)cc6)c(c35)-c3c(C)c(Cl)c(c(Cl)c3C)O[C@H](CN3CCN(C)CC3)CO4)n2)CC1` [Example 113, (7R,16R)-19,23-dichloro-10-({2-[(1s,4s)-4-fluoro-4-(2,5,8,11,14,17-hexaoxaoctadecan-1-yl)cyclohexyl]pyrimidin-4-yl}methoxy)-1-(4-fluorophenyl)-20,22-dimethyl-16-[(4-methylpiperazin-1-yl)methyl]-7,8,15,16-tetrahydro-18,21-etheno-13,9-(metheno)-6,14,17-trioxa-2-thia-3,5-diazacyclononadeca[1,2,3-cd]indene-7-carboxylic Acid], the Ki [1, 4] was 0.065 nM, the Ki [1, 5] was 0.016 nM and the IC50 [2] was 0.00028 µM. It also gave an IC50 [3] of 0.00064 µM.

`Cc1c(Cl)c2c(Cl)c(C)c1-c1c(-c3ccc(F)cc3)sc3ncnc(c13)O[C@@H](C(=O)O)Cc1cc(ccc1OCc1ccnc(N3CCOCCOCCOCCOCC3)n1)OC[C@@H](CN1CCN(C)CC1)O2` [Example 115, (7R,16R)-19,23-dichloro-1-(4-fluorophenyl)-20,22-dimethyl-16-[(4-methylpiperazin-1-yl)methyl]-10-{[2-(1,4,7,10-tetraoxa-13-azacyclopentadecan-13-yl)pyrimidin-4-yl]methoxy}-7,8,15,16-tetrahydro-18,21-etheno-13,9-(metheno)-6,14,17-trioxa-2-thia-3,5-diazacyclononadeca[1,2,3-cd]indene-7-carboxylic Acid] was tested, and the Ki [1, 4] was 0.862 nM, the Ki [1, 5] was 0.093 nM and the IC50 [2] was 0.000593 µM. The IC50 [3] was 0.00113 µM.

Compound `Cc1c(Cl)c2c(Cl)c(C)c1-c1c(-c3ccc(F)cc3)sc3ncnc(c13)O[C@@H](C(=O)O)Cc1cc(ccc1OCc1ccnc(N3CCOCCOCCOCCOCCOCC3)n1)OC[C@@H](CN1CCN(C)CC1)O2` [Example 116, (7R,16R)-19,23-dichloro-1-(4-fluorophenyl)-20,22-dimethyl-16-[(4-methylpiperazin-1-yl)methyl]-10-{[2-(1,4,7,10,13-pentaoxa-16-azacyclooctadecan-16-yl)pyrimidin-4-yl]methoxy}-7,8,15,16-tetrahydro-18,21-etheno-13,9-(metheno)-6,14,17-trioxa-2-thia-3,5-diazacyclononadeca[1,2,3-cd]indene-7-carboxylic Acid] has a Ki [1, 4] of 2.94 nM, a Ki [1, 5] of 0.332 nM and an IC50 [2] of 0.00297 µM. It also gave an IC50 [3] of 0.00798 µM.

Work on `Cc1c(Cl)c2c(Cl)c(C)c1-c1c(-c3ccc(F)cc3)sc3ncnc(c13)O[C@@H](C(=O)O)Cc1cc(ccc1OCc1ccnc(-c3cccc(CN4CCS(=O)(=O)CC4)c3)n1)OC[C@@H](CN1CCN(C)CC1)O2` [Example 117, (7R,16R)-19,23-dichloro-10-[(2-{3-[(1,1-dioxo-1λ^6-thiomorpholin-4-yl)methyl]phenyl}pyrimidin-4-yl)methoxy]-1-(4-fluorophenyl)-20,22-dimethyl-16-[(4-methylpiperazin-1-yl)methyl]-7,8,15,16-tetrahydro-18,21-etheno-13,9-(metheno)-6,14,17-trioxa-2-thia-3,5-diazacyclononadeca[1,2,3-cd]indene-7-carboxylic Acid] yielded a Ki [1, 4] of 0.219 nM, a Ki [1, 5] of 0.025 nM and an IC50 [2] of 0.000205 µM. It also gave an IC50 [3] of 0.000364 µM.

Work on `COCCOCCOCCOC[C@]1(F)CC[C@@H](c2nccc(COc3ccc4cc3C[C@H](C(=O)O)Oc3ncnc5sc(-c6ccc(F)cc6)c(c35)-c3c(C)c(Cl)c(c(Cl)c3C)O[C@H](CN3CCN(C)CC3)CO4)n2)CC1` [Example 118, (7R,16R)-19,23-dichloro-1-(4-fluorophenyl)-10-({2-[(1s,4s)-4-fluoro-4-(2,5,8,11-tetraoxadodecan-1-yl)cyclohexyl]pyrimidin-4-yl}methoxy)-20,22-dimethyl-16-[(4-methylpiperazin-1-yl)methyl]-7,8,15,16-tetrahydro-18,21-etheno-13,9-(metheno)-6,14,17-trioxa-2-thia-3,5-diazacyclononadeca[1,2,3-cd]indene-7-carboxylic Acid] yielded a Ki [1, 4] of 27.3 nM, a Ki [1, 5] of 1.99 nM and an IC50 [2] of 0.000247 µM. For the same compound, the IC50 [3] was 0.000396 µM.

`COCCOCCO[C@]1(c2nccc(COc3ccc4cc3C[C@H](C(=O)O)Oc3ncnc5sc(-c6ccc(F)cc6)c(c35)-c3c(C)c(Cl)c(c(Cl)c3C)O[C@H](CN3CCN(C)CC3)CO4)n2)CC[C@@H](OCC2COCCO2)CC1` (stereo partly drawn) [Example 121, (7R,16R)-19,23-dichloro-10-[(2-{(1r,4r)-4-[(1,4-dioxan-2-yl)methoxy]-1-[2-(2-methoxyethoxy)ethoxy]cyclohexyl}pyrimidin-4-yl)methoxy]-1-(4-fluorophenyl)-20,22-dimethyl-16-[(4-methylpiperazin-1-yl)methyl]-7,8,15,16-tetrahydro-18,21-etheno-9,13-(metheno)-6,14,17-trioxa-2-thia-3,5-diazacyclononadeca[1,2,3-cd]indene-7-carboxylic Acid] gave a Ki [1, 4] of 0.231 nM, a Ki [1, 5] of 0.052 nM and an IC50 [2] of 0.00508 µM. For the same compound, the IC50 [3] was 0.00956 µM.

With `COCCOCCO[C@]1(c2nccc(COc3ccc4cc3C[C@H](C(=O)O)Oc3ncnc5sc(-c6ccc(F)cc6)c(c35)-c3c(C)c(Cl)c(c(Cl)c3C)O[C@H](CN3CCN(C)CC3)CO4)n2)CC[C@H](OCC2COCCO2)CC1` (stereo partly drawn) [Example 122, (7R,16R)-19,23-dichloro-10-[(2-{(1s,4s)-4-[(1,4-dioxan-2-yl)methoxy]-1-[2-(2-methoxyethoxy)ethoxy]cyclohexyl}pyrimidin-4-yl)methoxy]-1-(4-fluorophenyl)-20,22-dimethyl-16-[(4-methylpiperazin-1-yl)methyl]-7,8,15,16-tetrahydro-18,21-etheno-9,13-(metheno)-6,14,17-trioxa-2-thia-3,5-diazacyclononadeca[1,2,3-cd]indene-7-carboxylic Acid] the Ki [1, 4] was 0.698 nM, the Ki [1, 5] was 0.024 nM and the IC50 [2] was 0.00107 µM. It also gave an IC50 [3] of 0.00277 µM.

For `Cc1c(Cl)c2c(Cl)c(C)c1-c1c(-c3ccc(F)cc3)sc3ncnc(c13)O[C@@H](C(=O)O)Cc1cc(ccc1OCc1ccnc(-c3ccc(OCC4COCCOCCOCCOCCOCCO4)cc3)n1)OC[C@@H](CN1CCN(C)CC1)O2` (stereo partly drawn) [Example 123, (7R,16R)-19,23-dichloro-1-(4-fluorophenyl)-10-[(2-{4-[(1,4,7,10,13,16-hexaoxacyclooctadecan-2-yl)methoxy]phenyl}pyrimidin-4-yl)methoxy]-20,22-dimethyl-16-[(4-methylpiperazin-1-yl)methyl]-7,8,15,16-tetrahydro-18,21-etheno-13,9-(metheno)-6,14,17-trioxa-2-thia-3,5-diazacyclononadeca[1,2,3-cd]indene-7-carboxylic Acid], the Ki [1, 4] was 0.051 nM, the Ki [1, 5] was 0.003 nM and the IC50 [2] was 0.00128 µM. For the same compound, the IC50 [3] was 0.00467 µM.

In the case of `Cc1c(Cl)c2c(Cl)c(C)c1-c1c(-c3ccc(F)cc3)sc3ncnc(c13)O[C@@H](C(=O)O)Cc1cc(ccc1OCc1ccnc(-c3ccc(CN4CCS(=O)(=O)CC4)cc3)n1)OC[C@@H](CN1CCN(C)CC1)O2` [Example 126, (7R,16R)-19,23-dichloro-10-[(2-{4-[(1,1-dioxo-1˜^6-thiomorpholin-4-yl)methyl]phenyl}pyrimidin-4-yl)methoxy]-1-(4-fluorophenyl)-20,22-dimethyl-16-[(4-methylpiperazin-1-yl)methyl]-7,8,15,16-tetrahydro-18,21-etheno-13,9-(metheno)-6,14,17-trioxa-2-thia-3,5-diazacyclononadeca[1,2,3-cd]indene-7-carboxylic Acid], the Ki [1, 4] is reported as 0.39 nM, the Ki [1, 5] is reported as 0.043 nM and the IC50 [2] is reported as 0.000544 µM. The IC50 [3] was 0.00169 µM.
